Data reported in PubChem BioAssay (NCI).
Several values for one entry are separate records, joined by “and”; a condition that tells them apart may be missing. Equal entries are not always repeated.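 Step 1: Grow cells in 96-well plates. Step 2: Expose to compound for 48 hours at 5 concentrations. Step 3: Interpolate endpoints linearly; if unreached, use highest concentration. GI50 = concentration required for 50% inhibition of growth. The concentration for full growth arrest is given as TGI.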 Where a SMILES comes first, the peptide text is derived from it. [ ]: non-standard residue; d: D form. The star is where a group is joined. ξ: configuration not given here. X6 = FC(F)(F)c1cc(NC(=S)*)cc(C(F)(F)F)c1; ξF = NC(Cc1ccccc1)C(=O)O

Key:
Experiment in all cases: NCI tumour cell line growth inhibition, 48 h
A498 renal = system: A498 renal
SW-620 colon = system: SW-620 colon
CCRF-CEM leukemia = system: CCRF-CEM leukemia
NCI-H23 lung = system: NCI-H23 lung
OVCAR-5 ovarian = system: OVCAR-5 ovarian
SNB-75 CNS = system: SNB-75 CNS
MALME-3M melanoma = system: MALME-3M melanoma
TK-10 renal = system: TK-10 renal
UACC-257 melanoma = system: UACC-257 melanoma
SK-MEL-28 melanoma = system: SK-MEL-28 melanoma

SMILES	GI50 (A498 renal)	TGI (A498 renal)	GI50 (SW-620 colon)	TGI (SW-620 colon) [µM]	GI50 (CCRF-CEM leukemia)	TGI (CCRF-CEM leukemia) [µM]	GI50 (NCI-H23 lung)	TGI (NCI-H23 lung) [µM]	GI50 (OVCAR-5 ovarian)	TGI (OVCAR-5 ovarian) [µM]	GI50 (SNB-75 CNS)	TGI (SNB-75 CNS)	GI50 (MALME-3M melanoma)	TGI (MALME-3M melanoma)	GI50 (TK-10 renal) [µM]	TGI (TK-10 renal)	GI50 (UACC-257 melanoma)	TGI (UACC-257 melanoma)	GI50 (SK-MEL-28 melanoma)	TGI (SK-MEL-28 melanoma)
COC(=O)[C@@H](NC(=O)CNC(=O)[C@H]1CCCN1C(=O)C(Cc1ccccc1)NC(=S)Nc1cc(C(F)(F)F)cc(C(F)(F)F)c1)C(C)C (stereo partly drawn) (X6-[ξF][dP]GV-OMe)	2.11 µM	7.92 µM	3.72 µM	24.5	3.17 µM	35.1	2.53 µM	8.02	1.93 µM	3.64	1.52 µM	3.49 µM	3.88 µM	15.1 µM	4.45	18.8 µM	2.14 µM	5.75 µM	1.84 µM	3.38 µM
C[C@]12CC[C@H](O)CC1=CC[C@@H]1C2CC[C@]2(C)C(=O)N(N)C(=O)CC12 (stereo partly drawn)		> 100 µM		> 100		> 100		> 100		> 100		> 100 µM		> 100 µM		> 100 µM		> 100 µM		> 100 µM
C=C(CN1CCN(c2ccc(Cl)cc2F)CC1)c1ccc(C(=O)Nc2ccccc2N)cc1	3.03 µM	> 80.4 µM	3.06 µM	> 100	0.524 µM	> 100	3.13 µM	> 100	51.7 µM	> 100	11.4 µM	> 46.1 µM	1.92 µM	> 100 µM	3.53	> 100 µM	1.59 µM	48.6 µM	> 26.8 µM	> 100 µM
O=CC[C@H]1C(=O)C[C@@H]2CCC[C@@H]21		> 100 µM		> 100		> 100		> 100		> 100		> 100 µM		> 100 µM		> 100 µM		> 100 µM		> 100 µM
COC1=CC(=O)c2nc(-c3ccncc3)[nH]c2C1=O	> 100 µM	> 100 µM	> 100 µM	> 100	> 100 µM	> 100	> 100 µM	> 100	> 100 µM	> 100	88.3 µM	> 100 µM	> 100 µM	> 100 µM	> 100	> 100 µM	> 100 µM	> 100 µM	> 100 µM	> 100 µM
CC(C)CCC[C@@H](C)[C@H]1CC[C@H]2[C@@H]3CC=C4C[C@@H](C(C(=O)O)C(=O)O)CC[C@]4(C)[C@H]3CC[C@]12C	0.0862 µM	0.216 µM	0.156 µM	1.25	0.112 µM	0.913	0.147 µM	0.63	0.198 µM	5.56	0.166 µM	1.47 µM	0.134 µM	0.502 µM	0.165	0.632 µM	0.133 µM	0.639 µM	0.143 µM	0.469 µM
COc1ccc2c(c1)/C(=C/c1c(C)nc3sc(C)nn13)C(=O)N2	3.07 µM	> 50 µM	0.695 µM	> 100	2.52 µM	> 100	3.33 µM	> 65.5	9.28 µM	> 100	1.58 µM	7.14 µM		> 100 µM	7.43	> 100 µM	> 100 µM	> 100 µM	5.29 µM	> 100 µM
Cn1cc(C2=C(c3cn(C)c4ncccc34)C(=O)NC2=O)c2ccccc21	3.73 µM	11 µM	9.7 µM	> 25	8.41 µM	> 22.9	14.3 µM	> 25	10.4 µM	> 25	0.669 µM	> 23.6 µM	8.5 µM	20 µM	10.8	> 25 µM	12.8 µM	> 25 µM	8.56 µM	> 25 µM
O=C(/C=C/C12c3ccccc3C(c3ccccc31)C1C(=O)NC(=O)C12)c1ccncc1 (stereo not drawn)	14.1 µM	28.3 µM	2.47 µM	7.95	2.39 µM	8.87	2.09 µM	4.45	3.11 µM	13.5	2.19 µM	10.9 µM	3.16 µM	12.2 µM	2.61	7.75 µM	2.7 µM	9.19 µM	2.1 µM	4.57 µM
COC1=CC(c2ccc[nH]2)=N/C1=C\c1[nH]c(C)c(C(=O)OC(C)C)c1C	0.255 µM	1.92 µM	0.0336 µM	1.44	0.0316 µM	> 100	0.0702 µM	1.74	0.144 µM	1.95	0.0805 µM	1.96 µM	0.456 µM	2.19 µM	0.0541	2.49 µM	0.0898 µM	1.87 µM	0.216 µM	1.95 µM
CCC(CO)Nc1nc2ccc(Cl)cc2c2ccccc12 (stereo not drawn)	4.6 µM	16 µM	13.5 µM	26.9	4.24 µM	17.4	12.3 µM	25.9	5.4 µM	19.7	4.38 µM	18 µM	15.7 µM	29.3 µM	3.91	18 µM	15.3 µM	28.6 µM	14.3 µM	27.3 µM
COC(CN1C(=O)c2cccc3cccc(c23)C1=O)OC		> 100 µM		> 100		> 100		> 100		> 100		> 100 µM		> 100 µM		> 100 µM		> 100 µM		> 100 µM
Cc1nc2ccccc2c(N)c1-c1cc(C)c2c(C)nc3ccccc3c2n1	1.73 µM	4.11 µM	0.183 µM	0.435	0.362 µM	2.12	1.56 µM	3.24	1.59 µM	3.06	1.52 µM	3.16 µM	1.27 µM	2.59 µM	1.44	2.78 µM	1.79 µM	3.29 µM	1.61 µM	2.97 µM
COC1CCC(N2C(=O)CNc3ncc(-c4ccc(C(C)(C)O)nc4)nc32)CC1 (stereo not drawn)	0.0614 µM and 0.0422 µM	0.769 µM and 0.378 µM	1.78 µM and 0.935 µM	> 37.5	1.41 µM and 0.738 µM	> 100	1.16 µM and 0.35 µM	> 45.1	0.918 µM and 0.273 µM	> 44.8	0.281 µM and 0.0543 µM	3.54 µM and 1.6 µM	0.228 µM and 0.0287 µM	2.8 µM and 0.352 µM		5.58 µM and 1.86 µM	0.649 µM and 0.195 µM	5.23 µM and 3.83 µM	0.378 µM and 0.155 µM	4.1 µM and 10.4 µM
O=C1CC(c2ccc3c(c2)OCO3)Nc2ccccc21 (stereo not drawn)	13.4 µM	28.7 µM	6.61 µM	23.1	3.85 µM	> 100	12.2 µM	32.7	11.1 µM	> 55.4	4.04 µM	18.5 µM	14.5 µM	30.2 µM	25.7	99.4 µM	26.4 µM	> 60.4 µM	15.1 µM	32.7 µM
CC1=C(C(=O)NCc2ccccc2)C(/C=C/c2ccccc2)C(C(=O)NCc2ccccc2)=C(C)N1		> 100 µM		> 100		> 100		> 100		> 100		> 100 µM		> 100 µM		> 100 µM		> 100 µM		> 100 µM
COc1ccc2c3c1C(=O)CCCC3CO2 (stereo not drawn)		> 100 µM		> 100		> 100		> 100		> 100		> 100 µM		> 100 µM		> 100 µM		> 100 µM		> 100 µM
C=C1C(=O)C23CC1CCC2C12CO[C@@H]4OCC(C)(CC[C@@H]1OC3=O)C42 (stereo partly drawn)		34.8 µM		7.04		12.1		16.6		29.2		30.8 µM		4.14 µM		13.8 µM		10.2 µM		4.41 µM
Cc1nc2ccccc2c(=O)n1-c1ccccc1I		> 100 µM		> 100		> 100		> 100		> 100		> 100 µM		> 100 µM		> 100 µM		> 100 µM		> 100 µM
